Data as given in US8119661B2, “Piperidine derivatives and their use as muscarinic receptor modulators” (AstraZeneca AB, priority 2007, dated 2012).

Biological target: T1, cloned human M2 receptor (Homo sapiens, UniProt P08172)
T1 construct: purchased Perkin-Elmer RBHM2M; host or cells: CHO cell membranes
T1 sequence (P08172 1-466): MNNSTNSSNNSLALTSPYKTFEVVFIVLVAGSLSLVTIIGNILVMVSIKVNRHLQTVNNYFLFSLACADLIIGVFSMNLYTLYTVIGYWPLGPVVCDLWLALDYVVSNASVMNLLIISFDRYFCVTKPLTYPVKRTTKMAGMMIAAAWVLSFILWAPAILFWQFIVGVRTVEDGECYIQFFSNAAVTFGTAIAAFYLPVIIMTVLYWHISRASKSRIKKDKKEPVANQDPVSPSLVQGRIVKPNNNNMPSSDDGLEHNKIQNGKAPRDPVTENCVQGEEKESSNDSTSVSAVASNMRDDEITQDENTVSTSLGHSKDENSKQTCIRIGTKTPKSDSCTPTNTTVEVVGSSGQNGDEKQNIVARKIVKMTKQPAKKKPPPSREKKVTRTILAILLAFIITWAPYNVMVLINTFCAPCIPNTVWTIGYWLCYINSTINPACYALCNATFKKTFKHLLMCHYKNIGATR
Assay: hM2 receptor GTPγS binding
Type: biochemical
Conditions: CHO membranes expressing hM2, [35S]GTPγS binding
Procedure: Membranes produced from Chinese hamster ovary cells (CHO) expressing the cloned human M2 receptor (human Muscarinic receptor subtype 2, gene bank access NM_000739), are obtained from Perkin-Elmer (RBHM2M). The membranes are thawed at 37° C., passed 3 times through a 23-gauge blunt-end needle, diluted in the GTPγS binding buffer (50 mM Hepes, 20 mM NaOH, 100 mM NaCl, 1 mM EDTA, 5 mM MgCl2, pH 7.4, 100 μM DTT). The EC50, IC50 and Emax of the compounds of the invention are evaluated from 10-point dose-response curves (three fold concentration range) done in 60 μl in 384-well non-specific binding surface plate (Corning). Ten microliters from the dose-response curves plate (5× concentration) are transferred to another 384 well plate containing 25 μl of the following: 5 μg of hM2 membranes, 500 μg of Flashblue beads (Perkin-Elmer) and GDP 25 μM. An additional 15 μl containing 3.3× (60,000 dpm) of GTPγ^35S (0.4 nM final) are added to the wells resulting in a total well volume of 50 μl. Basal and maximal stimulated [^35S]GTPγS binding are determined in absence and presence of 30 μM final of acetylcholine agonist. The membranes/beads mix are pre-incubated for 15 minutes at room temperature with 25 μM GDP prior to distribution in plates (12.5 μM final). The reversal of acetylcholine-induced stimulation (2 μM final) of [^35S]GTPγS binding is used to assay the antagonist properties (IC50) of the compounds. The plates are incubated for 60 minutes at room temperature then centrifuged at 400 rpm for 5 minutes. The radioactivity (cpm) is counted in a Trilux (Perkin-Elmer).
Values of EC50, IC50 and Emax are obtained using sigmoidal fits of a non-linear curve-fitting program (XLfit version 4.2.2 Excel add-in version 4.2.2 build 18 math 1Q version 2.1.2 build 18) of percent stimulated [^35S]GTPγS binding vs. log(molar ligand). All pEC50 and pIC50 values are reported as arithmetic means±standard error of mean of ‘n’ independent experiments.

| Structure (SMILES) | EC50 |
| --- | --- |
| CC1(N2CCC(N3C(=O)N[C@H]4CCCC[C@@H]43)CC2)CCN(C(=O)OCCF)C1 (mixture of isomers) [Example 08, 2-fluoroethyl 3-[4-[(3aS,7aS)-2-oxo-3a,4,5,6,7,7a-hexahydro-3H-benzoimidazol-1-yl]-1-piperidyl]-3-methyl-pyrrolidine-1-carboxylate] | > 15 µM |
| COC(=O)N1CCC(C)(N2CCC(N3C(=O)N[C@H]4CCCC[C@@H]43)CC2)C1 (mixture of isomers) [Example 10, Methyl 3-[4-[(3aS,7aS)-2-oxo-3a,4,5,6,7,7a-hexahydro-3H-benzoimidazol-1-yl]-1-piperidyl]-3-methyl-pyrrolidine-1-carboxylate] | > 4 µM |
| CCOC(=O)N1CCC(C)(N2CCC(N3C(=O)N[C@@H]4CCCC[C@H]43)CC2)C1 (mixture of isomers) [Example 11, Ethyl 3-[4-[(3aR,7aR)-2-oxo-3a,4,5,6,7,7a-hexahydro-3H-benzoimidazol-1-yl]-1-piperidyl]-3-methyl-pyrrolidine-1-carboxylate] | 2.9 µM |

These reach a lower EC50. Values come first.

| EC50 | Structure (SMILES) |
| --- | --- |
| 0.204 µM | CC#CCOC(=O)N1CCC(C)(N2CCC(N3C(=O)N[C@H]4CCCC[C@@H]43)CC2)C1 (single isomer, unassigned) [Example 19] |
| 0.048 µM | C#CCOC(=O)N1CCC(C)(N2CCC(N3C(=O)N[C@H]4CCCC[C@@H]43)CC2)CC1 [Example 17, prop-2-ynyl 4-[4-[(3aS,7aS)-2-oxo-3a,4,5,6,7,7a-hexahydro-3H-benzimidazol-1-yl]-1-piperidyl]-4-methyl-piperidine-1-carboxylate] |
